According to ChEMBL document CHEMBL3758126, “Synthesis of 4-sulfamoylphenyl-benzylamine derivatives with inhibitory activity against human carbonic anhydrase isoforms I, II, IX and XII” (Bioorg Med Chem, 2016):

Columns and labels:
Carbonic anhydrase 12 = Carbonic anhydrase 12 (Homo sapiens, UniProt O43570)
Description: Inhibition of human recombinant carbonic anhydrase 12 preincubated for 15 mins by stopped-flow CO2 hydrase assay

Carbonic anhydrase 1 = Carbonic anhydrase 1 (Homo sapiens, UniProt P00915)
Description: Inhibition of human recombinant carbonic anhydrase 1 preincubated for 15 mins by stopped-flow CO2 hydrase assay

Carbonic anhydrase 9 = Carbonic anhydrase 9 (Homo sapiens, UniProt Q16790)
Description: Inhibition of human recombinant carbonic anhydrase 9 preincubated for 15 mins by stopped-flow CO2 hydrase assay

Chain of Carbonic anhydrase 12 (O43570 whole entry): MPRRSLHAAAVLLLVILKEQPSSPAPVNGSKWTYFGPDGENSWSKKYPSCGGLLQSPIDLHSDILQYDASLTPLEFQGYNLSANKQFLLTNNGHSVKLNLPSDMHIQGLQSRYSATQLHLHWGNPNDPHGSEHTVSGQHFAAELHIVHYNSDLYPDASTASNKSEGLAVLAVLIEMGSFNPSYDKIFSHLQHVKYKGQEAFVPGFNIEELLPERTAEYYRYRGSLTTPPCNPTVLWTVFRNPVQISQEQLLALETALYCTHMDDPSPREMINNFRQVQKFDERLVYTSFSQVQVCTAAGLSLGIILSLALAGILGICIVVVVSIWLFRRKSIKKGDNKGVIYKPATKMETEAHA
Chain of Carbonic anhydrase 1 (P00915 whole entry): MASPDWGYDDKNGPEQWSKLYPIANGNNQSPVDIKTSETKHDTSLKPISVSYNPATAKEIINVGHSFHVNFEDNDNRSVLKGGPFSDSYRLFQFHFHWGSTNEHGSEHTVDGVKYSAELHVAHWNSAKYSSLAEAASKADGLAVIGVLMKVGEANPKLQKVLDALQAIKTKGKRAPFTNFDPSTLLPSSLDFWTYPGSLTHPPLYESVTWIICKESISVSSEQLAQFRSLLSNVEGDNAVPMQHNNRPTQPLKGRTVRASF

SMILES | Ki (Carbonic anhydrase 12) [nM] | Ki (Carbonic anhydrase 1) [nM] | Ki (Carbonic anhydrase 9) [nM]
COc1ccc(CNc2ccc(S(N)(=O)=O)cc2)cc1 | 427 | 21.9 | 2.2
NS(=O)(=O)c1ccc(NCc2cc(Cl)ccc2O)cc1 | – | – | 2.4
CN(C)c1ccc(/C=N/c2ccc(S(N)(=O)=O)cc2)cc1 | 8.8 | 421 | 41.5
COc1ccc(/C=N/c2ccc(S(N)(=O)=O)cc2)cc1 | 11.2 | > 50000 | 883
Cc1ccc(CNc2ccc(S(N)(=O)=O)cc2)cc1 | – | – | 2.1
Cc1cccc(/C=N/c2ccc(S(N)(=O)=O)cc2)c1O | – | – | 465
Cc1cccc(CNc2ccc(S(N)(=O)=O)cc2)c1O | – | – | 2.3
NS(=O)(=O)c1ccc(NCc2cc(Cl)cc(Cl)c2O)cc1 | – | – | 2.2
NS(=O)(=O)c1ccc(NCc2ccccc2O)cc1 | – | – | 2.9
NS(=O)(=O)c1ccc(/N=C/c2cc(Cl)cc(Cl)c2O)cc1 | – | – | 35.6
NS(=O)(=O)c1ccc(/N=C/c2ccc(OCc3ccccc3)cc2)cc1 | – | > 50000 | 36
NS(=O)(=O)c1ccc(/N=C/c2cc(Br)ccc2O)cc1 | – | – | 257
NS(=O)(=O)c1ccc(/N=C/c2cc(Br)cc(Br)c2O)cc1 | – | > 50000 | 360
NS(=O)(=O)c1ccc(NCc2ccc(OCc3ccccc3)cc2)cc1 | – | – | 2.5
NS(=O)(=O)c1ccc(NCc2cc(Br)cc(Br)c2O)cc1 | – | – | 2.3
NS(=O)(=O)c1ccc(/N=C/c2cc(Cl)ccc2O)cc1 | – | > 50000 | 47.9
CN(C)c1ccc(CNc2ccc(S(N)(=O)=O)cc2)cc1 | > 50000 | – | 2.4
NS(=O)(=O)c1ccc(/N=C/c2ccccc2O)cc1 | – | – | 952
NS(=O)(=O)c1ccc(/N=C/c2ccccc2)cc1 | 11.1 | > 50000 | 454
Cc1ccc(/C=N/c2ccc(S(N)(=O)=O)cc2)cc1 | 9.9 | > 50000 | –
